From patent US20170296573A1, “ANTITUMOR DRUG COMPRISING BETA-CYCLODEXTRIN” (JRC G. K., priority 2014, published 2017)

Legend:
[1] = test system: UOK121 cells; assay: Example 10 Test B: cyclodextrin with 2DG-ABT in UOK121 cells, live cells by trypan-blue dye exclusion; type: cell-based, human; conditions: 10 mM 2DG, 10 mM cyclodextrin, 0.3 μM ABT-263, 25 mM glucose
Experimental: (§1) Dead and live cells were counted by trypan-blue dye exclusion methods. These experiments were done in triplicate, and the error bars indicate the standard deviation.
(Test A) UOK121 cells were incubated in 10% serum medium with 5 mM or 10 mM α-, β-, and γ-cyclodextrins for 45 minutes. The same medium without any cyclodextrin was also incubated as a control. The cells were harvested and analyzed by Western Blots for the phosphorylation of AKT and ERK1/2 as an indicator of the AKT and ERK1/2 activations. (Test B) 10 mM 2DG was added to a medium of U0K121 cells in the presence of 25 mM glucose, and the medium was incubated for 1.5 hours. To the medium was added 10 mM α-, β-, or γ-cyclodextrin, and the medium was incubated for 30 minutes. Then, 0.3 μM ABT-263 was added thereto, and the medium was further incubated for 2 hours. Separately, a control that includes only α-, β-, or γ-cyclodextrin without 2DG or ABT-263, and another control that includes neither α-, β-, or γ-cyclodextrin, nor 2DG or ABT-263 were prepared. 2.5 hours after adding each cyclodextrin (i.e., 2 hours after adding ABT-263), all the cells were washed with the medium twice, and next day the live cells were counted by trypan-blue dye exclusion assay.

[2] = test system: AKT; assay: Example 10 Test A: AKT activation in UOK121 cells with α-, β-, γ-cyclodextrins; type: cell-based, human; conditions: 10% serum, 5 mM or 10 mM cyclodextrin, 45 minutes
Experimental: We ran 20 μg of proteins per lane for western blots. We ran 8, 10, 12.5 and 15% gels depending on the size of proteins being detected by western blots. When there are two proteins having a similar size, gel is flowed in each protein to make western blot analysis about each protein. The immunoprecipitation was undergone by adding 200 μg of protein from solubilized cells and Protein G Sepharose or Protein A Sepharose (Sigma P3296/P9242) pre-conjugated with immunoprecipitation antibody to a buffer for immunoprecipitation, and slowly rotating the tube containing the sample buffer at 4° C. overnight. The buffer for immunoprecipitation comprises 20 mM Tris Ph 7.5, 1% Triton-X100, 150 mM NaCl, phosphatase inhibitor cocktail (Cell Signaling (#58709S)), and 10% glycerol. […] The precipitate in the solution was separated with 15% SDS-PAGE or 12.5% SDS-PAGE and analyzed by Western blotting.
(Test A) UOK121 cells were incubated in 10% serum medium with 5 mM or 10 mM α-, β-, and γ-cyclodextrins for 45 minutes. […] The cells were harvested and analyzed by Western Blots for the phosphorylation of AKT and ERK1/2 as an indicator of the AKT and ERK1/2 activations. […] 2.5 hours after adding each cyclodextrin (i.e., 2 hours after adding ABT-263), all the cells were washed with the medium twice, and next day the live cells were counted by trypan-blue dye exclusion assay.

[3] = test system: caspase 9; assay: Example 7: caspase 9 cleavage in RCC4 cells, Western blot; type: cell-based
Experimental: (§2) (A and B) RCC4 cells were treated with 2DG, bCD, 2DG +bCD, or left untreated as done in Example 6. Approximately 20 μg of the whole cell lysates (WCL) were analyzed by western blotting. Bak- and Bcl-xL-bound proteins were immune-precipitated from approximately 200 μg of cell lysates and analyzed by western blotting. (C) 3 μM ABT with or without the 20 μM pan-caspase inhibitor z-VAD was added to the cells pre-treated with the combination of 2DG and bCD over 2 hours, and analyzed by Western blotting for caspase 9. […]

[4] = test system: cytochrome c; assay: Example 7: cytochrome c release assay in RCC4 cells; type: cell-based; conditions: RCC4 cells pre-treated with 2DG-bCD
Experimental: RCC4 cells grown and treated on glass cover slips were first fixed with 3.7% formaldehyde in PBS for 10 minutes. Then the cover slips were briefly exposed to 100% methanol kept in a −20° C. freezer. Cover slips were incubated with 10% serum in PBS before being stained with mouse anti-cytochrome c antibody overnight. Next morning, the cover slips were washed and blocked with 10% serum in PBS for 30 minutes. Then they were exposed to secondary anti-mouse antibody conjugated with AF488 for 30 minutes. They were washed again and exposed to propidium iodide (1 μg/mL in PBS) for 15 minutes to stain DNA in the nucleus before being washed and mounted on the glass slides. We used a Keyence BZ9000 microscope with a 100× objective lens for observation. […] (E) RCC4 cells treated with 2DG-bCD (left panel), RCC4 cells treated with 2DG-bCD-ABT (middle panel), and RCC4 cells treated with 2DG-bCD-ABT in the presence of 20 μM pan-caspase inhibitor z-VAD (right panel) were immunostained using anti-cytochrome c antibody and GFP-conjugated anti-mouse antibody. Nuclei were stained red with propidium iodide.

[5] = target: Bak-Bcl-xL complex (Homo sapiens, UniProt Q07817); assay: Example 7: immunoprecipitation of Bak-bound proteins in RCC4 cells, Bcl-xL; type: cell-based; conditions: RCC4 cells pre-treated with 2DG and bCD, 3 μM ABT
Bak-Bcl-xL complex, sequence (Q07817 whole entry, one chain of several): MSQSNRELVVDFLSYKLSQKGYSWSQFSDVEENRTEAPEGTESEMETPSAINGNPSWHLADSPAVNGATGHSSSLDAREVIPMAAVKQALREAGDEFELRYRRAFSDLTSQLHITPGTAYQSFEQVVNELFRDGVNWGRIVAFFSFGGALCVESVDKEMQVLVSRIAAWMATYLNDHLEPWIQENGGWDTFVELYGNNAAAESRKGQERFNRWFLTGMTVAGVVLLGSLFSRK
Experimental: as §2

[6] = test system: AKT; assay: Example 2 Method A: AKT phosphorylation in RCC4 cells stimulated with IGF1, serum free; type: cell-based; conditions: 10 mM 2DG 2 hours, 10 mM bCD (MBCD), 0-30 ng/ml IGF1 5 minutes
Experimental: We ran 20 μg of proteins per lane for western blots. We ran 8, 10, 12.5 and 15% gels depending on the size of proteins being detected by western blots. When there are two proteins having a similar size, gel is flowed in each protein to make western blot analysis about each protein. The immunoprecipitation was undergone by adding 200 μg of protein from solubilized cells and Protein G Sepharose or Protein A Sepharose (Sigma P3296/P9242) pre-conjugated with immunoprecipitation antibody to a buffer for immunoprecipitation, and slowly rotating the tube containing the sample buffer at 4° C. overnight. The buffer for immunoprecipitation comprises 20 mM Tris Ph 7.5, 1% Triton-X100, 150 mM NaCl, phosphatase inhibitor cocktail (Cell Signaling (#58709S)), and 10% glycerol. Next morning, the content in the tube was centrifuged. The precipitate was washed with the same buffer twice and dissolved in SDS buffer. The precipitate in the solution was separated with 15% SDS-PAGE or 12.5% SDS-PAGE and analyzed by Western blotting.
The bCD used herein was MBCD.
RCC4 cells were incubated in serum free media for 2 hours with or without 10 mM 2DG. In the last hour, 10 mM bCD was added to each one subset of the cells treated/untreated with 2DG. Then 0-30 ng/ml IGF1 was added and the incubation continued for 5 minutes before the cells were harvested and analyzed by Western blotting.

[7] = test system: Panc-1 cells; assay: Example 9: 2DG-bCD-TRAIL in Panc-1 cells, live cells by trypan-blue dye exclusion; type: cell-based; conditions: TRAIL 10 ng/ml alone
Experimental: as §1
(A) Panc-1 cells were treated with the standard 2DG-bCD-TRAIL protocol (FIG. 3). The live cells were distinguished from the dead cells by trypan-blue dye exclusion assays, and the live cells were counted, and graphed. The experiments were performed in triplicate and the error bars represent the standard deviations. (B) Western blots of Panc-1 cells left untreated, treated with TRAIL, treated with 2DG-bCD combination, and treated with the combination of 2DG-bCD-TRAIL as depicted in FIG. 3. The cells were harvested at hour 6. The experiments were repeated three times with similar results.

For `OC[C@H]1O[C@@H]2O[C@H]3[C@H](O)[C@@H](O)[C@@H](O[C@H]4[C@H](O)[C@@H](O)[C@@H](O[C@H]5[C@H](O)[C@@H](O)[C@@H](O[C@H]6[C@H](O)[C@@H](O)[C@@H](O[C@H]7[C@H](O)[C@@H](O)[C@@H](O[C@H]8[C@H](O)[C@@H](O)[C@@H](O[C@H]1[C@H](O)[C@H]2O)O[C@@H]8CO)O[C@@H]7CO)O[C@@H]6CO)O[C@@H]5CO)O[C@@H]4CO)O[C@@H]3CO` [β-cyclodextrin], the “enhancement of the combination effect of 2DG-ABT (live cells)” value [1] was “clearly enhanced” and the “AKT activation (phosphorylation)” value [2] was “lowered”.

In the case of `CC1(C)CCC(c2ccc(Cl)cc2)=C(CN2CCN(c3ccc(C(=O)NS(=O)(=O)c4ccc(N[C@H](CCN5CCOCC5)CSc5ccccc5)c(S(=O)(=O)C(F)(F)F)c4)cc3)CC2)C1` [ABT, ABT-263], the “caspase 9 activation” value ([3]; RCC4 cells pre-treated with 2DG and bCD, 3 μM ABT) is reported as “activated”, the “time to full caspase 9 activation” value ([3]; after ABT addition, RCC4 cells pre-treated with 2DG-bCD) is reported as ≤ 2 h and the “release of cytochrome c from mitochondria” value ([4]; with or without 20 μM z-VAD) is reported as “took place only after the addition of ABT”. The “time to full release of cytochrome c” value ([4]; after ABT addition) was ≤ 2 h and the Bak-Bcl-xL complex [5] was “caused the dissociation”.

For `O=CC[C@@H](O)[C@H](O)[C@H](O)CO` [2DG, 2-deoxyglucose], the AKT phosphorylation [6] was “increasing the phosphorylation of AKT”.

B1: TRAIL: TNF-related apoptosis-inducing ligand (protein, UniProt P50591 1-281, looked up)
Tumor necrosis factor ligand …: MAMMEVQGGPSLGQTCVLIVIFTVLLQSLCVAVTYVYFTNELKQMQDKYSKSGIACFLKEDDSYWDPNDEESMNSPCWQVKWQLRQLVRKMILRTSEETISTVQEKQQNISPLVRERGPQRVAAHITGTRGRSNTLSSPNSKNEKALGRKINSWESSRSGHSFLSNLHLRNGELVIHEKGFYYIYSQTYFRFQEEIKENTKNDKQMVQYIYKYTSYPDPILLMKSARNSCWSKDAEYGLYSIYQGGIFELKENDRIFVSVTNEHLIDMDHEASFFGAFLVG
For B1, the “effect on Panc-1 cells (live cells)” value [7] was “virtually no effect”.
